From patent US7816328B2, “Substituted fused heterocyclic C-glycosides” (Janssen Pharmaceutica NV, priority 2003, dated 2010) come the findings set out here.

Test [1] addresses T1, human SGLT2 (Homo sapiens, UniProt P31639).
T1 construct: expressed in transfected cells; host or cells: CHO-K1
T1 sequence (P31639 1-672): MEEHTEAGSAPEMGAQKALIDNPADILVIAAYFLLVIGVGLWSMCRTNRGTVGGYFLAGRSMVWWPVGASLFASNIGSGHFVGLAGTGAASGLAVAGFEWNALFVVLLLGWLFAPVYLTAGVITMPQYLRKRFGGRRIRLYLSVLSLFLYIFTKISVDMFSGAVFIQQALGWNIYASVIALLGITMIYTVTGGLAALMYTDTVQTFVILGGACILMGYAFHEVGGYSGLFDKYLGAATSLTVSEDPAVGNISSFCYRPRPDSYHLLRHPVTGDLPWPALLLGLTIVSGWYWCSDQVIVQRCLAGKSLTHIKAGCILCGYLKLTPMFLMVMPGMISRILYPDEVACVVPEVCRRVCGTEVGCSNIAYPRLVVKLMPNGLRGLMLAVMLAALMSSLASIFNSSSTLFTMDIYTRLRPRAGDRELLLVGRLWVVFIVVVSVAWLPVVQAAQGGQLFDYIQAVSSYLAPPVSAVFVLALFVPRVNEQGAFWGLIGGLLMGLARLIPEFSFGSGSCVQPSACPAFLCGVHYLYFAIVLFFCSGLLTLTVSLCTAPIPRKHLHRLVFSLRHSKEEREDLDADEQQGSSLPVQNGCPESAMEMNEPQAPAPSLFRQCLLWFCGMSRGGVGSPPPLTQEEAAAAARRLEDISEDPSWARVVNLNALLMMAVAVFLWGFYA
The test can be described thus: Cell-based assay for sodium-dependent glucose transport (14C-AMG uptake), CHO-K1 cells stably expressing human SGLT2. Conditions: Na-dependent 14C-AMG uptake; for IC50: read-out: CHOK-SGLT2 IC50; for inhibition at 10 µM: read-out: CHOK-SGLT2 % Inh at 10 uM. How it is done: (§1) Cloning of the human SGLT1 and human SGLT2 cDNAs and construction of the mammalian expression vector: The human SGLT1 cDNA (Genbank M24847) was cloned from human small intestine. Human SGLT2 cDNA (Genbank M95549) was cloned from human kidney. Both full cDNAs were subcloned into pcDNA and sequenced to verify the integrity of the construct.
(§2) Generation of CHO-K1 cells stably expressing human SGLT1 or human SGLT2: Transfection of CHO-K1 cells was performed using DMRIE-C reagent (Life Technologies, Gaithersburg, Md.). Transfectants were then selected in the presence of the antibiotic G418 (Gibco-BRL, Grand Island, N.Y.) at 400 μg/ml. Individual clones were then characterized using the functional assay described below.
(§3) Cell-based assay for sodium-dependent glucose transport: Cell lines stably expressing human SGLT1 or SGLT2 were then used for functional analysis of Na+-dependent glucose uptake. Briefly, cells were plated at a density of 65,000 cells per well in a 96-well plate and allowed to grow for 48 hours. Cells were subsequently washed one time with Assay Buffer (50 mM HEPES pH 7.4, 20 mM Tris, 5 mM KCl, 1 mM MgCl2, 1 mM CaCl2 and 137 mM NaCl) and treated with compound in the absence or presence of NaCl for 15 minutes. Cells were then labeled with ^14C-α-methylglucopyranoside (AMG, Sigma, St. Louis, Mo.) a non-metabolizable glucose analog specific for sodium-dependent glucose transporters as previously described (Peng, H. and Lever J. E. Post-transcriptional regulation of Na^+/glucose cotransporter (SGLT1) gene expression in LLC-PK1 cells. J Biol Chem 1995; 270:20536-20542). After 2 hours the labelled cells were washed three times with ice-cold PBS. After aspiration, cells were solubilized using Microscint 20 (Packard, Meriden, Conn.) and Na-dependent ^14C-AMG uptake was quantified by measuring radioactivity.
(§4) Plates were counted in a TopCount (Packard, Meriden, Conn.). Results are reported as the % inhibition or IC50 value from a representative experiment. Variability for the functional assay was typically within 20%.

Test [2] deals with T2, human SGLT1 (Homo sapiens, UniProt P13866).
T2 construct: expressed in transfected cells; host or cells: CHO-K1
T2 sequence (P13866 1-664): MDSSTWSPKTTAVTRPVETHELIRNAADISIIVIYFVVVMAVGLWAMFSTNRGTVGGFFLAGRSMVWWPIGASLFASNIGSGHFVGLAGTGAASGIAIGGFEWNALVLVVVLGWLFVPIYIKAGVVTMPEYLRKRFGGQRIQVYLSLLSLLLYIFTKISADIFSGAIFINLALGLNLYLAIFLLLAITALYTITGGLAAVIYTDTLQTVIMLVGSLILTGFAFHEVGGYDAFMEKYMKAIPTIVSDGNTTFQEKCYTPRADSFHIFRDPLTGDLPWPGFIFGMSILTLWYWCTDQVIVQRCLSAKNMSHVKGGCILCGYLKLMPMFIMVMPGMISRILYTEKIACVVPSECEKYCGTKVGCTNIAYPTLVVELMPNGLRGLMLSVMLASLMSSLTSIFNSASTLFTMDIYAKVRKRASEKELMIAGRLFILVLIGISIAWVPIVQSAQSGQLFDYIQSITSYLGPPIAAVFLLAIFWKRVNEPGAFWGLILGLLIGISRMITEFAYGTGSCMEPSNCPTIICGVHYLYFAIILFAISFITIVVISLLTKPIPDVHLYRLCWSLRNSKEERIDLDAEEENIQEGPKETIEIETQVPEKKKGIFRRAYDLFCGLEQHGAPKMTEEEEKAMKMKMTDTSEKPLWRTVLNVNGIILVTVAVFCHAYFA
The test can be described thus: Cell-based assay for sodium-dependent glucose transport (14C-AMG uptake), CHO-K1 cells stably expressing human SGLT1. Conditions: Na-dependent 14C-AMG uptake. How it is done:
as §1, §2, §3, §4

By IC50 is commonly meant the concentration that inhibits the measured activity by half. For `CCc1ccc(Cc2c[nH]c3ccc([C@@H]4O[C@H](CO)[C@@H](O)[C@H](O)[C@H]4O)cc23)cc1` [Example 1, 3-(4-Ethylbenzyl)-5-(β-D-glucopyranosyl)-1H-indole], in test [1], the IC50 was 132 ± 24 nM. For the same molecule, in test [2], the “CHOK-SGLT1 IC50 (uM)” value is “inactive”.

For the molecule `COc1ccc(Cc2c[nH]c3ccc([C@@H]4O[C@H](CO)[C@@H](O)[C@H](O)[C@H]4O)cc23)cc1` [Example 2, 5-(β-D-Glucopyranosyl)-3-(4-methoxybenzyl)-1H-indole], the IC50 in test [1] stood at 1390 ± 67 nM. In test [2], the “CHOK-SGLT1 IC50 (uM)” value was “inactive”.

Turning to `COc1ccc(CCc2c[nH]c3ccc([C@@H]4O[C@H](CO)[C@@H](O)[C@H](O)[C@H]4O)cc23)cc1` [Example 3, 5-(β-D-Glucopyranosyl)-3-[2-(4-methoxyphenyl)-ethyl]-1H-indole], the inhibition at 10 µM in test [1] is 60%. Also, the “CHOK-SGLT1 IC50 (uM)” value in test [2] was “inactive”.

For `CCc1ccc(Cc2c[nH]c3cccc([C@@H]4O[C@H](CO)[C@@H](O)[C@H](O)[C@H]4O)c23)cc1` [Example 4, 3-(4-Ethylbenzyl)-4-(β-D-glucopyranosyl)-1H-indole], the inhibition at 10 µM in test [1] turned out to be 12%. In addition, the “CHOK-SGLT1 IC50 (uM)” value in test [2] was “inactive”.
